Results reported in patent US20230331803A1, “CO-AGONISTS OF THE GLP-1 AND AMYLIN RECEPTORS” (priority 2020, published 2023).
Entries after “also recorded” stand apart in the source; their conditions may differ. Like-named read-outs stand apart in the source and are kept apart here. Starred links: 1 amine or outer side, 2 acyl side, 3 side chain; linkers in the order of their positions; H or OH if unused. Non-standard residues stand in square brackets, D forms with d. Groups on a side chain read outwards from the residue. *: point of attachment. Decanoyl(10-(4-HOOC-PhO)) = O=C(O)c1ccc(OCCCCCCCCCC(=O)*)cc1; C20 diacid = O=C(O)CCCCCCCCCCCCCCCCCCC(=O)*; C18 diacid = O=C(O)CCCCCCCCCCCCCCCCC(=O)*; γGlu = O=C(O)[C@H](CCC(=O)[*:2])N[*:1]; εLys = N[C@@H](CCCCN[*:1])C(=O)[*:2]; Trx = NC[C@H]1CC[C@H](C(=O)O)CC1; AEEA = NCCOCCOCC(=O)O; Aib = CC(C)(N)C(=O)O

B1: HWEGTFTSDVSSYLEEQAAR-K([2-[2-[2-[[2-[2-[2-[[(4S)-4-Carboxy-4-[[4-[(19-Carboxynonadecanoylamino)Methyl]Cyclohexanecarbonyl]Amino]Butanoyl]Amino]Ethoxy]Ethoxy]Acetyl]Amino]Ethoxy]Ethoxy]Acetyl])-FIEWLVR … (peptide)
peptide: HWEGTFTSDVSSYLEEQAARK([AEEA-AEEA-γGlu-4‑(aminomethyl)cyclohexanecarbonyl-C20 diacid])FIEWLVRGRGEGGGGGASELSTAALGRLSAELHELATLPRTETGSGSP-NH2
B2: H-Aib-EGTFTSDVS-K([2-[2-[2-[[2-[2-[2-[[(4S)-4-Carboxy-4-[[4-[(19-Carboxynonadecanoylamino)Methyl]Cyclohexanecarbonyl]Amino]Butanoyl]Amino]Ethoxy]Ethoxy]Acetyl]Amino]Ethoxy]Ethoxy]Acetyl])-YLEEQAAREFIA … (peptide)
peptide: H-H[Aib]EGTFTSDVSK([AEEA-AEEA-γGlu-4‑(aminomethyl)cyclohexanecarbonyl-C20 diacid])YLEEQAAREFIAWLVRGRGGGGGEASELSTAALGRLSAELHELATLPRTETGSGSP-NH2
B3: H-Aib-EGTFTSDVSSYLEEQAAREFIAWLVRGRP-K([2-[2-[2-[[2-[2-[2-[[(4S)-4-Carboxy-4-[[4-[(19-Carboxynonadecanoylamino)Methyl]Cyclohexanecarbonyl]Amino]Butanoyl]Amino]Ethoxy]Ethoxy]Acetyl]Amino]Ethoxy]Ethoxy]A … (peptide)
peptide: H[Aib]EGTFTSDVSSYLEEQAAREFIAWLVRGRPK([AEEA-AEEA-γGlu-4‑(aminomethyl)cyclohexanecarbonyl-C20 diacid])GGGGEASELSTAALGRLSAELHELATLPRTETGSGSP-NH2
B4: H-Aib-EGTFTSDVSSYLEEQAAREFIAWLVRGR-K([(2S)-2-Amino-6-[[2-[2-[2-[[2-[2-[2-[[(4S)-4-Carboxy-4-[[4-[(19-Carboxynonadecanoylamino)Methyl]Cyclohexanecarbonyl]Amino]Butanoyl]Amino]Ethoxy]Ethoxy]Acetyl]Amino … (peptide)
peptide: H[Aib]EGTFTSDVSSYLEEQAAREFIAWLVRGRK([εLys-AEEA-AEEA-γGlu-4‑(aminomethyl)cyclohexanecarbonyl-C20 diacid])GGGGEASELSTAALGRLSAELHELATLPRTETGSGSP-NH2

Columns and labels:
[1] = target: T1, human amylin receptor (hAmyR3) (Homo sapiens, UniProt O60896+P30988); assay: Human amylin receptor in vitro potency assay (CRE-luciferase reporter, BHK cells); assay type: cell-based;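 note: BHK cells expressing human calcitonin receptor plus RAMP3 (amylin-3 receptor) with a CRE-luciferase reporter, agonist activity read as luminescence from cAMP-driven transcription, 7-point serial dilutions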
T1 construct: host or cells: BHK cells (Hollex-1 line: human calcitonin receptor (a) + CRE-Luc), further transfected with human RAMP3
T1 sequence (P30988 25-474): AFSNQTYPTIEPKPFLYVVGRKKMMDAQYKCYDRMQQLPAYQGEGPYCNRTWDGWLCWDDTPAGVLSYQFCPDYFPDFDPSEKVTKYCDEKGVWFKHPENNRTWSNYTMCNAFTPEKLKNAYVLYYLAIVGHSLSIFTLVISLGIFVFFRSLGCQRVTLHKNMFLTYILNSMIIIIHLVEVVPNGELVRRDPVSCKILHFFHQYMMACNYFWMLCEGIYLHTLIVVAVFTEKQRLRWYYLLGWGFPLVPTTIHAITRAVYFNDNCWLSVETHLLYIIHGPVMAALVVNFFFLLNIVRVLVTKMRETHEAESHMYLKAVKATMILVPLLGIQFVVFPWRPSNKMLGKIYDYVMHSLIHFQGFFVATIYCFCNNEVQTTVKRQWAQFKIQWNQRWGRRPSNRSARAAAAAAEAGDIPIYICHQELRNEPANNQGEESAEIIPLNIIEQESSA
T1 sequence (O60896 24-148): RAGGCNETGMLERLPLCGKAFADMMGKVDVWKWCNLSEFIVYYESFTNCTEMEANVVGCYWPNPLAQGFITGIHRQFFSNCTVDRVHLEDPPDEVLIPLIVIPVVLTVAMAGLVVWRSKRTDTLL
Description: Activation of hAmyR3 leads to increased cellular concentrations of cAMP. Consequently, transcription is activated by promotors containing multiple copies of the cAMP response element (CRE). It is thus possible to measure hAmyR3 activity using a CRE-luciferase reporter gene introduced into Baby Hamster Kidney (BHK) cells co-expressing the hAmyR3.
The cell line was further transfected with human receptor modifying protein 3 (RAMP3) using standard methods. This turns the human calcitonin receptor into a human amylin-3(a) receptor.
(§1) Cells were aliquoted and stored at -180° C. until use.
The plate was incubated over night at 37° C. in 5% CO2. On the day of the assay, cells were washed three times in assay buffer. Serial dilutions (7-fold dilutions, 7 concentrations pr. compound and one well containing only assay buffer) of comparator compounds and GLP-1 receptor-amylin receptor co-agonists were performed in assay buffer often starting from approximately 10-100 nM in 96-well plates and 30 µL of each concentration added to the 384-well assay plate with cells. […] The assay plate was sealed, incubated at room temperature with gentle shaking for 5 minutes followed by 30 minutes incubation without shaking while protected from light. Luminescence was detected on a luminescence plate reader e.g. a Synergy 2 (BioTek).

human GLP-1 receptor = target: T2, human GLP-1 receptor (Homo sapiens, UniProt P43220); assay: Human GLP-1 receptor in vitro potency assay (CRE-luciferase reporter, BHK cells); assay type: cell-based
T2 construct: expressed in transfected cells; host or cells: BHK (Baby Hamster Kidney) cells, clone BHK 467-12A KZ-10, stably transfected, with CRE-luciferase reporter
T2 sequence (P43220 24-463): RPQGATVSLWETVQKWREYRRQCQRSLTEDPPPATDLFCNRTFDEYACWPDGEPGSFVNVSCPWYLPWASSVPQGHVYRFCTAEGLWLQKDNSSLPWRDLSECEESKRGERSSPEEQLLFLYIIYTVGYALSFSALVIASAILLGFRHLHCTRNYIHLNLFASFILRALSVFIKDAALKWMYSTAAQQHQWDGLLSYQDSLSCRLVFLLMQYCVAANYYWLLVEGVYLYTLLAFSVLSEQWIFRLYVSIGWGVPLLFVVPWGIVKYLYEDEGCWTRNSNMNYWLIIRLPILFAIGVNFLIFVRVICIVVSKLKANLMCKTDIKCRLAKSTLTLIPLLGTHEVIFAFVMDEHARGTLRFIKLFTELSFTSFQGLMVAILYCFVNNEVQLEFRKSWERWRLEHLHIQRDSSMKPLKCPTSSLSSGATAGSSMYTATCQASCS
Description: It is thus possible to measure GLP-1 receptor activity using a CRE-luciferase reporter gene introduced into Baby Hamster Kidney (BHK) cells co-expressing the GLP-1 receptor.
as §1
Plates were sealed and incubated at room temperature with gentle shaking for 30 minutes while protected from light. Luminescence was detected on a luminescence plate reader e.g. a Synergy 2 (BioTek).

Sprague Dawley (SD) rats = assay: Acute food intake in ad libitum fed rats after a single subcutaneous administration; assay type: in vivo, rat; details: for Food intake relative to vehicle (%) 0-24 hr, 10 nmol/kg / Food intake relative to vehicle (%) 24-48 hr, 10 nmol/kg: rat, single administration;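 for all read-outs here: food intake monitored in the HM2 system, three rats per cage kept on a reversed light cycle, with food and water freely available after the subcutaneous dose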
Description: Sprague Dawley (SD) rats from Taconic Europe, Denmark were used for the acute food intake experiments, wherein the principles of laboratory animal care were followed.
The rats arrived at least 10-14 days before the start of the experiment to allow acclimatisation to experimental settings. During this period, the animals were handled at least 2 times. Immediately upon arrival, rats were put on a reversed light cycle (dark from 11am - 11pm) and put in the HM2 system and ID chipped. Three rats were housed in each cage. […] The rats were dosed once according to body weight with a 0.01-3 mg/kg solution administered subcutaneously (sc). The time of dosing was recorded for each group.
After dosing, the rats were returned to their home cages, where they had access to food and water. […] At the end of the experimental session, the animals were euthanised.

[2] = Pharmacokinetic studies in Beagle dogs after oral administration of SNAC-based tablets; assay type: in vivo; details: dogs, oral administration (tablet)
Description: To be able to evaluate oral exposure following tablet dosing, tablet compositions comprising the test substance and SNAC (sodium N-(8-(2-hydroxybenzoyl)amino)caprylate) were prepared by mixing test substance with roller compacted SNAC and magnesium stearate as, e.g., described in WO 2019/149880. The amount of SNAC in the tablet composition was 100-300 mg, the amount of magnesium stearate in the tablet composition was 7.7 mg, and the target amount of each test substance in the tablet composition was 3-4 mg.
Pharmacokinetic (PK) studies in Beagle dogs were conducted to determine the exposure of the GLP-1 receptor-amylin receptor co-agonist after peroral administration.
For the pharmacokinetic studies male Beagle dogs were used, 2-7, or 1 to 5, years of age and weighing approximately 10-15, such as 10-12, kg at the start of the studies. The dogs were group housed in pens (12 hours light: 12 hours dark),and fed individually and restrictedly once daily with Royal Canin Medium Adult dog (Royal Canin Products, China Branch, or Brogaarden A/S, Denmark). Exercise and group social were permitted daily, whenever possible. The dogs were used for repeated pharmacokinetic studies with a suitable wash-out period between successive dosing. An appropriate acclimatisation period was given prior to initiation of the first pharmacokinetic study. All handling, dosing and blood sampling of the animals were performed by trained and skilled staff. Before the studies the dogs were fasted overnight and from 0 to 4 h after dosing. Besides, the dogs were restricted to water 1 hour before dosing until 4 hours after dosing, but otherwise have ad libitum access to water during the whole period.
The tablets used for the p.o. studies described herein were immediate release SNAC-based tablets dosed orally.
The tablets were administered in the following manner: 10 min prior to tablet administration the dogs may be dosed subcutaneously with approximately 3 nmol/kg of SEQ ID NO: 237, tablets were placed in the back of the mouth of the dog to prevent chewing. The mouth was then closed, and 10 mL of tap water was given by a syringe or gavage to facilitate swallowing of the tablet.
Blood was sampled at predefined time points for up till 240 hours, such as up till 10 hr, post dosing to adequately cover the full plasma concentration-time absorption profile of the GLP-1 agonist.
For each blood sampling time point approximately 0.8 mL of whole blood was collected in a 1.5 mL EDTA coated tube, and the tube was gently turned to allowing mixing of the sample with the EDTA. Blood samples (for example 0.8 mL) were collected in EDTA buffer (8 mM) and then centrifuged at 4° C. and 2000 G for 10 minutes. Plasma was pipetted into Micronic tubes on dry ice, and kept at -20° C. until analysis.
Blood samples were taken as appropriate, for example from a venflon in the cephalic vein in the front leg for the first 2 hours and then with syringe from the jugular vein for the rest of the time points (the first few drops were allowed to drain from the venflon to avoid heparin saline from the venflon in the sample).
Plasma concentration of the GLP-1 receptor-amylin receptor co-agonists were determined using LCMS. Individual plasma concentration-time profiles were analysed by a non-compartmental model in WinNonlin v. 5.0 or Phoenix v. 6.2 or 6.3 (Pharsight Inc., Mountain View, CA, USA), or other relevant software for PK analysis.
The individual plasma concentration-time profiles were analysed by non-compartmental analysis (NCA).

[3] = Table 4a, BHK hAmyR3/CRE-Luc cells, 3 hours, read-out: Human AmyR3 potency [EC50 (pM)]
[4] = Table 4a, BHK cells expressing human GLP-1R, CRE-Luc, 3 hours, read-out: Human GLP-1R potency [EC50 (pM)]

Molecule | EC50 [1, 3] | EC50 (human GLP-1 receptor; [4]) | Food intake relative to vehicle (%) 0-24 hr, 10 nmol/kg (Sprague Dawley (SD) rats; Table 6a) | Food intake relative to vehicle (%) 24-48 hr, 10 nmol/kg (Sprague Dawley (SD) rats; Table 6a) | other results
H-H[Aib]EGTFTSDVSSYLEEQAAREIFAWLVRGRK([AEEA-AEEA-γGlu-Trx-C20 diacid])GGGGEASELSTAALGRLSAELHELATLPRTETGSGSP-NH2 [Comparator compound 0167, reference compound] | – | – | – | – | EC50 ([1]; Table 4c, further comparator compounds, read-out: Human AmyR3 potency [EC50 (pM)]): 10.9 pM; Ability to agonise the amylin receptor, in words ([1]; Tables 4a-4c): full amylin potency; EC50 (human GLP-1 receptor; Table 4c, further comparator compounds): ≥ 10000 pM; Ability to agonise the GLP-1 receptor, in words (human GLP-1 receptor; Tables 4a-4c): impaired their ability to agonise (activate) the GLP-1 receptor; also recorded: impaired GLP-1 activity; Food intake relative to vehicle (%) 0-24 hr, 10 nmol/kg (Sprague Dawley (SD) rats; Table 6b): 85%; Food intake relative to vehicle (%) 24-48 hr, 10 nmol/kg (Sprague Dawley (SD) rats; Table 6b): 73%; Inhibition of food intake, in words (Sprague Dawley (SD) rats; rats, 10 nmol/kg): significantly less than in the case of compound 0120
H-H[Aib]EGTFTSDVSSYLEGQAAK([AEEA-AEEA-γGlu-C18 diacid])EFIAWLVRGRGGGEASELSTAALGRLSAELHELATLPRTETGSGSP-NH2 [Compound 0007] | 9.4 pM | 13.3 pM | 67% | 105% | –
H-H[Aib]EGTFTSDVSSYLEGQAAK([AEEA-AEEA-γGlu-C18 diacid])EFIAWLVRGRGGGGGGGGGEASELSTAALGRLSAELHELATLPRTETGSGSP-NH2 [Compound 0052] | 19.4 pM | 17 pM | 42% | 86% | –
H-H[Aib]EGTFTSDVSSYLEGQAAK([AEEA-AEEA-γGlu-Trx-C20 diacid])EFIAWLVRGRGGGGGGGGGEASELSTAALGRLSAELHELATLPRTETGSGSP-NH2 [Compound 0095] | 6.6 pM | 7.4 pM | 55% | 95% | –
H-H[Aib]EGTFTSDVSSYLEGQAAK([εLys-AEEA-AEEA-γGlu-C18 diacid])EFIAWLVRGRGGGEASELSTAALGRLSAELHELATLPRTETGSGSP-NH2 [Compound 0044] | 9.1 pM | 16 pM | 40% | 82% | –
H-H[Aib]EGTFTSDVSSYLEGQAAKEFIAWLVRGRK([AEEA-AEEA-γGlu-C18 diacid])GGEASELSTAALGRLSAELHELATLPRTETGSGSP-NH2 [Compound 0042] | 10.8 pM | 16.2 pM | 52% | 101% | –
H-H[Aib]EGTFTSDVSSYLEGQAAREFIAWLVRGRK([AEEA-AEEA-γGlu-C18 diacid])GGGGEASELSTAALGRLSAELHELATLPRTETGSGSP-NH2 [Compound 0151] | 9.5 pM | 10.4 pM | 29% | 70% | –
HWEGTFTSDVSSYLEEK([εLys-AEEA-AEEA-γGlu-Trx-C20 diacid])AAREFIEWLVRGRGEASELSTAALGRLSAELHELATLPRTETGSGSP-NH2 [Compound 0434] | 13.9 pM | 11.8 pM | 39% | 105% | –
HWEGTFTSDVSSYLEEQAARK([AEEA-AEEA-γGlu-Decanoyl(10-(4-HOOC-PhO))])FIEWLVRGK([AEEA-AEEA-γGlu-Decanoyl(10-(4-HOOC-PhO))])GEGGGGGEASELSTAALGRLSAELHELATLPRTETGSGSP-NH2 [Compound 0100] | – | – | 85% | 86% | EC50 [1]: 30.4 pM; EC50 (human GLP-1 receptor): 6.8 pM
H[Aib]EGTFTSDVSSYLEEQAARK([AEEA-AEEA-γGlu-C18 diacid])FIAWLVRGRK([AEEA-AEEA-γGlu-C18 diacid])GGEASELSTAALGRLSAELHELATLPRTETGSGSP-NH2 [Compound 0116] | 21.7 pM | 1.5 pM | 83% | 82% | –
H[Aib]EGTFTSDVSSYLEEQAARK([γGlu-C18 diacid])FIAWLVRGRK([γGlu-C18 diacid])EASELSTAALGRLSAELHELATLPRTETGSGSP-NH2 [Compound 0131] | 14.5 pM | 16.1 pM | 70% | 80% | –
B1 | – | – | 71% | 46% | AUC/D [2]: 19.54 kg·h/L; Cmax/D [2]: 0.36 kg/L; Tmax [2]: 1.8 h; T½ [2]: 40 h
B2 | – | – | 50% | 45% | AUC/D [2]: 11.10 kg·h/L; Cmax/D [2]: 0.45 kg/L; Tmax [2]: 2.0 h; T½ [2]: 27 h
B3 | – | – | 73% | 53% | AUC/D [2]: 3.25 kg·h/L; Cmax/D [2]: 0.12 kg/L; Tmax [2]: 3.0 h; T½ [2]: 25 h
B4 | – | – | 47% | 44% | AUC/D [2]: 6.53 kg·h/L; Cmax/D [2]: 0.14 kg/L; Tmax [2]: 2.0 h; T½ [2]: 23 h
